Reference: US4980377A, “1-(aminophenyl)-2-aminopropanone derivatives” (Laboratoire L. Lafon, priority 1984, dated 1990)
Entries after “also recorded” stand apart in the source; their conditions may differ.

Experiments:
mice [1] = assay: Interaction with barbital; assay type: in vivo, mouse; conditions: i.p., barbital 220 mg/kg
Procedure: Half an hour after the administration of CRL 41 153, groups of 10 mice receive an intraperitoneal injection of barbital (220 mg/kg).

mice [2] = assay: Interaction with reserpine; assay type: in vivo, mouse; conditions: i.p.
Procedure: Four hours after the intraperitoneal injection of 2.5 mg/kg of reserpine, groups of 6 mice receive CRL 41 153.

dogs = assay: Cardiovascular study in anesthetized dogs; assay type: in vivo, dog
Procedure: Two dogs (average weight: 14.1 kg), anesthetized with nembutal, receive CRL 41 194 by intraduodenal administration at successive doses of 0.1 mg/kg, 0.5 mg/kg, 1 mg/kg, 2.5 mg/kg, 5 mg/kg and 10 mg/kg (in solution in physiological solvent).
The blood pressure, the heart rate, the blood flow through the femoral artery, the blood flow through the vertebral artery and the rectal temperature are measured. The coloration of the skin and the coloration of the bile, collected by catheterization of the bile duct after ligature of the cystic duct, are observed.
4 dogs (average weight: 14 kg), anesthetized with nembutal, receive CRL 41 221 by intraduodenal administration at successive doses of 0.1 mg/kg, 0.5 mg/kg, 1 mg/kg, 2.5 mg/kg, 5 mg/kg and 10 mg/kg. The blood pressure, the heart rate, the blood flow through the femoral artery, the blood flow through the vertebral artery and the rectal temperature are measured. The coloration of the skin is observed.

rats [3] = assay: Interaction with apomorphine in rats; assay type: in vivo, rat; conditions: i.p.
Procedure: CRL 41 153 is administered to groups of 6 rats 0.5 hour before the subcutaneous injection of 0.5 mg/kg of apomorphine.

rats [4] = assay: Interaction with amphetamine; assay type: in vivo, rat; conditions: i.p.
Procedure: Amphetamine (2 mg/kg) is injected intraperitoneally into groups of 6 rats 30 minutes after the administration of CRL 41 153. […] 4 mg/kg and 16 mg/kg, CRL 41 153 potentiates the intensity and duration of the stereotypies induced by amphetamine.

mice [5] = assay: Motility reduced by habituation to the enclosure; assay type: in vivo, mouse; conditions: i.p.
Procedure: After they have stayed In the actimeters for 18 hours, (he mice (6 per dose, 12 control animals) receive CRL 41 153. They are immediately returned to their respective enclosures and, half an hour later, their motility is recorded for 30 minutes.

mice [6] = assay: Interaction with oxotremorine; assay type: in vivo, mouse; conditions: i.p.
Procedure: CRL 41 153 is administered to groups of 6 mice 0.5 hour before the intraperitoneal injection of 0.5 mg/kg of oxotremorine.

rats [7] = assay: Overall behavior and reactivities in rats; assay type: in vivo, rat; conditions: dose not stated
Procedure: (§1) In the neuropsychopharmacological study which follows, a solution of CRL 41 153 in distilled water (pH 1.5) was administered intraperitoneally in a volume of 20 ml/kg to male mice and 5 ml/kg to male rats.
(§2) Groups of three animals are observed before and then 0.25 hour, 0.50 hour, 1 hour, 2 hours, 3 hours and 24 hours after the administration of CRL 41 153.

mice [8] = assay: Motility reduced by hypoxic aggression; assay type: in vivo, mouse; conditions: i.p.
Procedure: Half an hour after they have received CRL 41 153, the mice (10 per dose, 20 control animals) are subjected to acute hypobaric anoxia [pressure reduction of 600 mm Hg (i.e. about 8×10^4 Pa) in 90 seconds; release of vacuum in 45 seconds] and are then placed in an actimeter, where their motility is recorded for 10 minutes.

mice [9] = assay: Spontaneous motility; assay type: in vivo, mouse; conditions: i.p.
Procedure: 0.5 hour after they have received CRL 41 153, the mice (6 per dose, 12 control animals) are placed in an actimeter, where their motility is recorded for 30 minutes.

mice [10] = assay: Overall behavior and reactivities in mice; assay type: in vivo, mouse; conditions: dose not stated
Procedure: as §1, §2

mice [11] = assay: Behavioral despair; assay type: in vivo, mouse; conditions: forcibly immersed mice, i.p.
Excerpt: Half an hour after they have received CRL 41 153, groups of 6 mice are placed in a beaker filled with water to a height of 6 cm. The total period of immobility between the 2nd and 6th minutes following immersion is noted.

[12] = tested on: gravid White New Zealand female rabbits; assay: Teratogenicity in gravid White New Zealand rabbits; assay type: in vivo, rabbit; conditions: day 5 to day 18 of gestation; for Affected foetuses, %: normal limit 1.5%
Procedure: The protocol used comprised administering to gravid White New Zealand female rabbits (weighing each about 2900-3000 grams before gestation) a daily dose of 0 (batch of control animals), 5,10 or 50 mg/kg of each product to be tested by gastrogavage from day 5 to day 18 of gestation, then carrying out a cesarean operation on day 29 of gestation in order to enumerate:
(i) the total number of foestuses, and
(ii) the total number of foestuses presenting at least one malformation.
To appreciate the results of such a protocol it must be noted that natural malformations may occur. Statistically, the percentage of foetuses presenting at least one malformation in any control batch of gravid White New Zealand female rabbits is lower than or equal to 1.5% with respect to the total number of foetuses.
To be precise in this protocol a malformation comprises at least one of the following cases: articular limb blocade, anorous foetus, deviated tail, shorter tail, skull deformation, exemcephalia.

CNS = assay: Neuropsychopharmacological profile as a whole; assay type: in vivo, mice and rats
Procedure: as §1

mice [13] = assay: Interaction with apomorphine in mice; assay type: in vivo, mouse; conditions: i.p.
Procedure: Groups of 6 mice receive CRL 41 153 0.5 hour before the subcutaneous injection of 1 or 16 mg/kg of apomorphine.

[14] = pH of solutions in distilled water; assay type: physicochemical
Procedure: The neuropsychopharmacological study was undertaken according to the procedures described above for CRL 41 153, CRL 41 213 being adminstered intraperitoneally, in solution in distilled water, in a volume of 20 ml/kg to male mice and a volume of 5 ml/kg to male rats, and the pH of the injected solution varying with the concentration of CRL 41 213 according to the data given in Table II below.

[15] = anesthetized dogs, intraduodenal
[16] = 12.8 g/liter in distilled water
[17] = ≤0.05 g/liter in distilled water

| Compound | Duration of the sleep induced by barbital (mice [1]) | Effect on hypothermia induced by reserpine (mice [2]) | Vasodilator (conclusion) (dogs) | Effect on stereotypies induced by apomorphine (rats [3]) | Effect on stereotypies induced by amphetamine (rats [4]) | Motor activity of mice accustomed to their enclosure (mice [5]) | Effect on hypothermic action of oxotremorine (mice [6]) | Overall behavior: observed effects (summary) (rats [7]) | Stereotype movements (summary) (rats [7]) | Motor recovery of mice after hypobaric hypoxia (mice [8]) | Spontaneous motor activity (mice [9]) | Overall behavior: observed effects (summary) (mice [10]) | Stereotype movements (summary) (mice [10]) | Period of immobility due to despair (mice [11]) | Affected foetuses, number ([12]; 5 mg/kg daily) | Total foetuses (live) ([12]; 5 mg/kg daily) | Affected foetuses, % ([12]; 5 mg/kg daily) | Affected foetuses, number ([12]; 10 mg/kg daily) | Total foetuses (live) ([12]; 10 mg/kg daily) | Affected foetuses, % ([12]; 10 mg/kg daily) | other results |
| --- | --- | --- | --- | --- | --- | --- | --- | --- | --- | --- | --- | --- | --- | --- | --- | --- | --- | --- | --- | --- | --- |
| CC(C(=O)c1ccc(N)cc1)N(C)C (centres unmarked) [CRL 41 233] | a decrease in the duration of the sleep induced by barbital | antagonism of the hypothermia | vasodiating properties; also recorded: vasodilating properties | potentiation of the stereotypies | potentiation of the stereotypies | resumption in the motor activity of mice accustomed to their enclosure | antagonism of the hypothermia | excitation with hyperreactivity in mice and rats | the presence of stereotype movements in mice and rats | improvement in the motor recovery | an increase in the spontaneous motor activity of mice | excitation with hyperreactivity in mice and rats | the presence of stereotype movements in mice and rats | a decrease in the period of immobility | 1 | 89 | 1.12% | 0 | 85 | 0% | Rectal temperature (dogs; anesthetized dogs): large increase in the rectal temperature; Femoral flow (dogs; [15]): increases the femoral and vertebral flows as from a dose of 5 mg/kg; Heart rate (dogs; [15]): the tachycardiac effect appearing at 10 mg/kg; Vertebral flow (dogs; [15]): increases the femoral and vertebral flows as from a dose of 5 mg/kg; Antidepressant effects (overall) (CNS; conclusion of the tests): antidepressant and stimulant properties; Stimulant effects (overall) (CNS; conclusion of the tests): antidepressant and stimulant properties; Effect on hypothermia induced by apomorphine (mice [13]): antagonism of the hypothermia; pH ([14]; 0.1 g/liter in distilled water): 5.0; pH ([14]; 0.2 g/liter in distilled water): 4.5; pH ([14]; 0.4 g/liter in distilled water): 4.0; pH ([14]; 0.8 g/liter in distilled water): 3.5; pH ([14]; 1.6 g/liter in distilled water): 3.0; pH ([14]; 3.2 g/liter in distilled water): 2.5; pH ([14]; 6.4 g/liter in distilled water): 2.0; pH [14, 16]: 1.5; pH ([14]; 50 g/liter in distilled water): 1.0; pH [14, 17]: 5.5 |
| CC(NC1CC1)C(=O)c1ccc(N)cc1 (centres unmarked) [CRL 41 246] | a reduction in the duration of the sleep induced by barbital | antagonism of the hypothermia | vasodiating properties | potentiation of the stereotypies | potentiation of the stereotypies | resumption in the motor activity of mice accustomed to their enclosure | antagonism of the hypothermia | excitation with hyperreactivity in mice and rats | the presence of stereotype movements in mice and rats | improvement in the motor recovery | an increase in the spontaneous motor activity of mice | excitation with hyperreactivity in mice and rats | the presence of stereotype movements in mice and rats | a reduction in the period of immobility | 1 | 89 | 1.12% | 0 | 94 | 0% | Effect on ptosis induced by reserpine (mice [2]): antagonism of the ptosis induced by reserpine; Effect on trembling induced by oxotremorine (mice [6]): antagonism of the trembling induced by oxotremorine; Antidepressant effects (overall) (CNS; conclusion of the tests): antidepressant effects; Stimulant effects (overall) (CNS; conclusion of the tests): stimulant effects; α-adrenergic stimulant effects (overall) (CNS; conclusion of the tests): α-adrenergic stimulant effects; Peripheral α-adrenergic signs (mydriasis, salivation, lacrimation, exophthalmos) (CNS; species and dose not stated): mydriasis; also recorded: salivation; Effect on hypothermia induced by apomorphine (mice [13]): antagonism of the hypothermia; pH ([14]; 0.1 g/liter in distilled water): 5.0; pH ([14]; 0.4 g/liter in distilled water): 4.5; pH ([14]; 0.8 g/liter in distilled water): 4.0; pH ([14]; 1.6 g/liter in distilled water): 3.5; pH ([14]; 6.4 g/liter in distilled water): 3.0; pH [14, 16]: 2.5; pH [14, 17]: 5.5 |
